The subject of assay [1] is cGMP. The assay is described as follows: cGMP concentration in rat CSF after single oral dose (CSF biomarker). In kind it is in vivo. The procedure: Rats were administered a single dose of either vehicle or sGC stimulator (1, 3, 10 or 30 mg/kg). One, two and six hours after administration, CSF samples were collected and analyzed to determine cGMP and compound concentrations and plasma samples were collected and analyzed to determine compound concentration. Each rat was sampled one time or multiple times with 3 or more days in between each dosing. The day before the experiment rats were fasted overnight with ad libitum access to water.
On the day of the experiment, compound and cyclic guanosine monophosphate (cGMP) concentrations in rat CSF was determined following oral dosing. Male CD rats implanted with an intracisternal cannula (250-275 g) were used for these studies. Rats were single housed under controlled conditions of temperature (21±1° C.), relative humidity (36±1%) and placed in a 12-hr light-dark cycle (lights on at 6:00 AM and off at 6:00 PM) room at SmartLabs vivarium (21 Erie Street, Cambridge, MA) under protocol MIL-110. Animals were allowed ad libitum access to chow (LabDiet Prolab Isopro RMH 3000, St. Louis, MO) and water. The rats were dosed with 0 mg/kg (vehicle), 1 mg/kg, 3 mg/kg, 10 mg/kg, or 30 mg/kg of a compound of the invention formulated as a suspension in 0.5% methylcellulose, 0.5% Tween80 or as a solution in MilliQ water. […]
Plasma and CSF samples were collected under isoflurane anesthesia as follows: samples of CSF and blood were collected at 1, 2, and 6 hours post-dosing. […] Plasma and CSF was collected and analyzed for the presence of a compound.
The compound of the invention, cGMP and the internal standard were extracted from plasma and CSF by precipitation. Samples were analyzed using liquid chromatography (LC) with tandem mass spectrometric detection (MS/MS) using electrospray ionization. […] CSF cGMP data were graphed using Graphpad Prism, version 8.4.3 and are expressed as means±S.E.M. Data were analyzed with a Mixed-effects analysis followed by Dunnett's multiple comparison test comparing to vehicle-treated rats within timepoint. […]

The subject of assay [2] is MPTP-induced cognitive deficits. The assay is described as follows: Chronic low dose MPTP-lesioned macaque model of cognitive deficits in Parkinson's disease. Particulars: 3.0 mg/kg oral daily monotherapy. Type of assay: in vivo, cynomolgus macaques. The source says:
This study was a non-GLP study in the chronic low dose MPTP-lesioned macaque model of Parkinson's disease. This model has been described in the literature (https://www.ncbi.nlm.nih.gov/pmc/articles/PMC3282499/). The study was designed to assess effects of Compound I-14, administered as monotherapy, on performance of the following cognitive tasks: variable delayed response (VDR), continuous performance (CPT), visual discrimination reversal learning (SDR) and object retrieval (OR). The study was conducted in animals that had received prior treatment with low doses of MPTP and were known to have difficulties in the performance of the above-mentioned tasks. These studies utilised four male cynomolgus macaques with MPTP-induced cognitive deficits. The study had 4 parts. The first part of the study was to collect baseline data from the four animals on the four tasks to be studied. The second part of the study was to administer vehicle (sterile, filtered distilled water) over a 16 day period and collect vehicle data on the four tasks once per week for two weeks. In the third part of the study, Compound I-14 was administered orally daily for five days and then data were collected on the four tasks once per week for two weeks, with continued daily administration of Compound I-14 (3.0 mg/kg) 2 hrs. prior to each days testing. In the final part of the study, there was a 9 day washout period and then data were collected on the four tasks once per week for two weeks. One dose of Compound I-14 was assessed as monotherapy (3.0 mg/kg) following five days of pre-dosing and daily dosing for two weeks. The effects of the treatment on cognitive performance was assessed 2 hrs. after daily drug administration and during drug washout. MPTP-HCl was administered by i.v. injection at doses ranging from 0.05 mg/kg to 0.30 mg/kg, 2 to 3 times per week for several months. MPTP administration continued until cognitive deficits appeared with minimal/mild parkinsonian motor impairment. Animals were considered “cognitively impaired” if they show at least a 15% decrease in cognitive task performance from pre-MPTP baseline levels. Because response to MPTP is somewhat idiosyncratic, MPTP was administered to effect (i.e., development of cognitive deficits and then development of motor deficits), rather than given for a particular duration of exposure or a particular cumulative dose of MPTP. […] The measure recorded for each session is: 1) total number of trials needed to learn the initial discrimination (i.e. reach the specified criterion of 14/16 correct, and; 2) total number of trials needed to learn (i.e., reach the same criterion as mentioned above) the reversal in which the previously negative (unrewarded) stimulus is now the positive (rewarded) stimulus (i.e., reach criterion). […]

The text below walks through data of patent US20240207265A1, “TREATMENT OF CNS DISEASES WITH sGC STIMULATORS” (Tisento Therapeutics Inc., priority 2021, published 2024).

Regarding `Cc1cc(F)c(Cc2nc(-c3ncc(F)c(O)n3)cn3ccnc23)cc1F` [Compound I-14, 5-fluoro-2-(8-(2,5-difluoro-4-methylbenzyl)imidazo[1,2-a]pyrazin-6-yl)pyrimidin-4-ol], the “concentration of cGMP in rat CSF vs vehicle-treated rats” value in assay [1] (1 mg/kg PO as sodium salt, two hours after dosing) is “significantly higher cGMP in CSF”; in assay [1] (3 mg/kg PO as sodium salt, one and two hours after dosing), “significantly higher concentrations of cGMP in the CSF”; in assay [1] (10 or 30 mg/kg PO as sodium salt, 1, 2 and 6 hours postdose), “significantly higher cGMP in the CSF”. For the same compound, the Simple discrimination performance result in assay [2] was “not significantly changed”. In addition, in assay [2], the “number of trials needed to reach criterion to learn the discrimination reversal” value is recorded as “significantly reduced”. Moreover, the “animals failing to learn the discrimination reversal” value in assay [2] (four animals) is “none of the animals failed to learn the reversal”. Besides, the “SDR (discrimination reversal) performance” value in assay [2] (tested 2 hrs after dosing) was “significantly improved performance”.
